This is an account of results in US20090298859A1, “METHOD FOR TREATING PLANTS” (SYNGENTA CROP PROTECTION, INC., priority 2006, published 2009).

Holding throughout (type): in vivo
Experiment [1] relates to Tea plants (Japanese green tea, Yabukita). Put plainly: Polyphenol content of tea leaves after pre-harvest spraying. Details: Total catechin (g): unit not given here. Particulars: autumn; for Total catechin (%) when compared to untreated / % compared to untreated (total catechin): untreated = 100%. On the procedure:
Tea plants (Japanese green tea, Yabukita) were grown in 5 m^2 plots, and the leaves were harvested. The harvested leaves were tested for polyphenols. Fourteen days before harvest, the tea plants were sprayed with a commercial formulation of emamectin benzoate (Affirm™), difenoconazole (Score™), methidathion (Supracid™), azoxystrobin (Amistar™) or a mixture of lufenuron and thiamethoxam. An otherwise identical set of tea plants were left untreated.
The experiment was repeated using either azoxystrobin or trifloxystrobin.
Both trials detailed above were carried out in the autumn. […] It is proposed that, when photosynthesis is active (e.g. in the summer season), addition of azoxystrobin may not enhance photosynthesis further and thus may not be able to further raise catechin levels.

The subject of the next experiment is Carrot plants. Put plainly: β-carotene content of harvested carrots after azoxystrobin spraying. As to conditions: conventional treatment plus Amistar Opti (azoxystrobin and chlorothalonil). As for the experimental part: Carrot plants were grown and the carrots were harvested after spraying twice with a conventional fungicide treatment (chlorothalonil, copper hydroxide, iminoctazine polyoxin and tolclofos-methyl) and with the conventional treatment plus Amistar Opti™ (azoxystrobin and chlorothalonil). Some of the harvested carrots were analysed immediately on harvest for β-carotene while others were stored for a week after harvest before analysis. […] It seems therefore that azoxystrobin has a clear effect on β-carotene levels in mature carrots.

Another experiment relates to strawberry. Put plainly: Anthocyanin levels in strawberry after azoxystrobin treatment. As for the experimental part: (§1) Similar work was carried out to look at isoflavone levels in soybean and anthocyanin levels in eggplant and strawberry on treatment of the plants with azoxystrobin. […] In addition, it also raised anthocyanin levels in strawberry by 50% (control: 200-220 mg anthocyanin/100 g strawberry; azoxystrobin treated: 210-420 mg anthocyanin/100 g strawberry), although it seemed to have no effect on anthocyanin levels in egg plant.

The test system of a further experiment is eggplant. Nature of the experiment: Anthocyanin levels in eggplant after azoxystrobin treatment. Particulars: egg plant. On the procedure: as §1
Experiment [2] deals with Tomato plants (Variety: Sunroad). Nature of the experiment: Lycopene content of harvested tomatoes after azoxystrobin spraying. Particulars: for lycopene content, single replicate: stored at room temperature, listed as Az-treated; for lycopene content, single replicate / lycopene content, mean of 3 replicates: conventional fungicide treatment plus azoxystrobin. On the procedure:
Tomato plants (Variety: Sunroad) were grown and the tomatoes were harvested after spraying with a conventional fungicide treatment and with the conventional treatment plus azoxystrobin. The harvested tomatoes were stored at room temperature and tested for lycopene concentration 2, 5, 9 and 12 days after sample harvesting (three tomatoes were chosen at random from each box on each day of testing).
When this study was repeated using similar conditions but on a smaller scale, a marked rise in lycopene content was not observed (control: 11.7 mg lycopene/100 g tomato; azoxystrobin treated: 10.7 mg lycopene/100 g tomato).

The test system of the next experiment is soybean. Nature of the experiment: Isoflavone levels in soybean after azoxystrobin treatment. On the procedure:
as §1

[3] abbreviates: Table 1 trial, commercial formulation sprayed 14 days before harvest.
Setting [4] is: 12 days after sample harvesting.

Where “and” joins values, the source holds several entries; their conditions need not be identical. Equal values may be shown once.

Take `COc1nn(CSP(=S)(OC)OC)c(=O)s1` [MTH, methidathion]: in experiment [1] (setting [3]), the Epicatechin is listed as 1100 mg polyphenol/100 g tea leaves, the Epicatechin gallate is recorded as 1100 mg polyphenol/100 g tea leaves, the Epigalocatechin was 4500 mg polyphenol/100 g tea leaves and the Epigalocatechin gallate is recorded as 5700 mg polyphenol/100 g tea leaves. The “Total catechin (%) when compared to untreated” value (“Total catechin (%) when” for short) in experiment [1] (Table 1 trial) was 109%.

As for `CC1COC(Cn2cncn2)(c2ccc(Oc3ccc(Cl)cc3)cc2Cl)O1` (stereo not shown) [DFZ, difenoconazole], in experiment [1] (setting [3]), the Epicatechin was 950 mg polyphenol/100 g tea leaves, the Epicatechin gallate is 970 mg polyphenol/100 g tea leaves, the Epigalocatechin is given as 4300 mg polyphenol/100 g tea leaves and the Epigalocatechin gallate is recorded as 5900 mg polyphenol/100 g tea leaves. For the same compound, in experiment [1] (Table 1 trial), the “Total catechin (%) when” value was 106%.

For emamectin benzoate, in experiment [1] (setting [3]), the Epicatechin was 960 mg polyphenol/100 g tea leaves, the Epicatechin gallate is recorded as 890 mg polyphenol/100 g tea leaves, the Epigalocatechin was 4600 mg polyphenol/100 g tea leaves and the Epigalocatechin gallate is recorded as 5600 mg polyphenol/100 g tea leaves. The “Total catechin (g)” value in experiment [1] (Table 1 trial, sprayed 14 days before harvest, table title: mg polyphenol/100 g tea leaves) was 12050. Besides, the “Total catechin (%) when” value in experiment [1] (Table 1 trial) is 106%.

For `CON=C(C(=O)OC)c1ccccc1CON=C(C)c1cccc(C(F)(F)F)c1` [Trifloxystrobin, trifloxystrobin], in experiment [1] (Table 2 repeat trial), the Epicatechin is 23.8 mg polyphenol/g tea leaves, the Epicatechin gallate is reported as 32.4 mg polyphenol/g tea leaves, the Epigalocatechin was 190.1 mg polyphenol/g tea leaves and the Epigalocatechin gallate is recorded as 163.0 mg polyphenol/g tea leaves. Further, in experiment [1] (Table 2 repeat trial), the Total catechin is given as 409.3 mg polyphenol/g tea leaves and the “% compared to untreated (total catechin)” value was found to be 110%.

Turning to `CO/C=C(/C(=O)OC)c1ccccc1Oc1cc(Oc2ccccc2C#N)ncn1` [Azoxystrobin, azoxystrobin], the “β-carotene levels compared with conventional fungicide regime” value with Carrot plants (carrots analysed immediately on harvest, sprayed twice) is “did not show an increase”. The β-carotene content in the experiment on Carrot plants (carrots stored for one week after harvest, conventional treatment 6.59) is 7.48 mg β-carotene/100 g carrot. In experiment [1] (setting [3]), the Epicatechin is 930 mg polyphenol/100 g tea leaves, the Epicatechin gallate is on record as 960 mg polyphenol/100 g tea leaves, the Epigalocatechin is on record as 4800 mg polyphenol/100 g tea leaves and the Epigalocatechin gallate is on record as 6200 mg polyphenol/100 g tea leaves. For the same compound, in experiment [1] (Table 1 trial), the “Total catechin (%) when” value was determined as 113%. In addition, in experiment [1] (Table 2 repeat trial), the Epicatechin is 24.5 mg polyphenol/g tea leaves, the Epicatechin gallate is 31.1 mg polyphenol/g tea leaves, the Epigalocatechin is listed as 178.8 mg polyphenol/g tea leaves and the Epigalocatechin gallate is on record as 160.6 mg polyphenol/g tea leaves. In experiment [1] (Table 2 repeat trial), the Total catechin is listed as 395.0 mg polyphenol/g tea leaves and the “% compared to untreated (total catechin)” value is recorded as 107%. Moreover, the anthocyanin content in the experiment with strawberry (control 200-220) is 210-420 mg anthocyanin/100 g strawberry. For the same compound, in the experiment with strawberry (strawberry, versus control), the “rise of anthocyanin levels” value amounted to 50%. In addition, the “effect on anthocyanin levels” value in the experiment with eggplant is reported as “no effect”. In experiment [2] (2 days after sample harvesting), the “lycopene content, single replicate” value is 5.69 mg lycopene/100 g tomato and 5.67 mg lycopene/100 g tomato and 5.14 mg lycopene/100 g tomato; the “lycopene content, mean of 3 replicates” value stood at 5.50 mg lycopene/100 g tomato. Also, in experiment [2] (5 days after sample harvesting), the “lycopene content, single replicate” value is 8.36 mg lycopene/100 g tomato and 8.87 mg lycopene/100 g tomato and 6.01 mg lycopene/100 g tomato; the “lycopene content, mean of 3 replicates” value was 7.75 mg lycopene/100 g tomato. For the same compound, in experiment [2] (9 days after sample harvesting), the “lycopene content, single replicate” value is 9.78 mg lycopene/100 g tomato and 9.14 mg lycopene/100 g tomato and 8.32 mg lycopene/100 g tomato; the “lycopene content, mean of 3 replicates” value came to 9.08 mg lycopene/100 g tomato. Moreover, in experiment [2] (setting [4]), the “lycopene content, single replicate” value was 8.27 mg lycopene/100 g tomato and 8.88 mg lycopene/100 g tomato and 9.24 mg lycopene/100 g tomato; the “lycopene content, mean of 3 replicates” value is reported as 8.79 mg lycopene/100 g tomato. The compound also displayed a lycopene content in experiment [2] (repeat study, similar conditions, smaller scale, control 11.7) of 10.7 mg lycopene/100 g tomato. Besides, the isoflavone content in the experiment with soybean (control 120) is reported as 130 mg isoflavone/100 g soybean. Further, the “increase of isoflavone levels” value in the experiment on soybean (soybean, versus control) is given as 8%.
